Entries after “also recorded” stand apart in the source; their conditions may differ.
How the values were obtained:
M2 = details: cited from earlier work
WT AM2 = assay type: cell-based, influenza A virus; details: pH 5.5

In the case of NC12CC3CC(CC(C3)C1)C2 [amantadine], the Hill coefficient (M2) is given as 1.0 and the “reversibility of inhibition after removal of the drug” value (WT AM2) is given as “did not reverse; also recorded: not reversible”.

Reference: article PMC2594009 (Structure (London, England : 1993), 2008)
